Assay results taken from PubChem BioAssay AID248 (DTP/NCI, 2004).
Several values for one entry are separate records, joined by “and”; a condition that tells them apart may be missing. Identical values can stand only once. Toxic doses and inconclusive results are not listed.

System: L1210 leukemia ip in BDF1 mice, survival T/C
Assay: NCI In Vivo Anticancer Drug Screen. Data for tumor model L1210 Leukemia (intraperitoneal) in B6D2F1 (BDF1) mice
Details: endpoint: mean survival time, higher = longer survival
In short: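 Antitumor effect is assessed in tumor-bearing animals. Survival in the compound arm is compared with a vehicle-dosed control arm and expressed as their quotient.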

[1] = dose: 100.0 mg/kg/injection, schedule: Q04DX003 (ip), vehicle: saline with Tween-80
[2] = dose: 200.0 mg/kg/injection, schedule: Q04DX003 (ip), vehicle: saline with Tween-80
[3] = dose: 400.0 mg/kg/injection, schedule: Q04DX003 (ip), vehicle: saline with Tween-80
[4] = dose: 100.0 mg/kg/injection, schedule: Q01DX001 (ip), vehicle: saline
[5] = dose: 100.0 mg/kg/injection, schedule: Q04DX002 (ip), vehicle: Klucel (hydroxypropylcellulose) (HPC)
[6] = dose: 200.0 mg/kg/injection, schedule: Q04DX002 (ip), vehicle: Klucel (hydroxypropylcellulose) (HPC)
[7] = dose: 100.0 mg/kg/injection, schedule: Q01DX001 (ip), vehicle: Klucel (hydroxypropylcellulose) (HPC)
[8] = dose: 200.0 mg/kg/injection, schedule: Q01DX001 (ip), vehicle: Klucel (hydroxypropylcellulose) (HPC)
[9] = dose: 400.0 mg/kg/injection, schedule: Q01DX001 (ip), vehicle: Klucel (hydroxypropylcellulose) (HPC)
[10] = dose: 25.0 mg/kg/injection, schedule: Q01DX009 (ip), vehicle: saline with Tween-80
[11] = dose: 50.0 mg/kg/injection, schedule: Q01DX009 (ip), vehicle: saline with Tween-80
[12] = dose: 100.0 mg/kg/injection, schedule: Q01DX009 (ip), vehicle: saline with Tween-80
[13] = dose: 400.0 mg/kg/injection, schedule: Q01DX009 (ip), vehicle: saline with Tween-80

CC(=O)c1c(C)[nH]c2ccc(NS(=O)(=O)N(C)C)cc12 was tested, and the T/C (dose: 75.0 mg/kg/injection, schedule: Q04DX003 (ip), vehicle: Klucel (hydroxypropylcellulose) (HPC)) was 96 % of control, the T/C (dose: 150.0 mg/kg/injection, schedule: Q04DX003 (ip), vehicle: Klucel (hydroxypropylcellulose) (HPC)) was 102 % of control and the T/C (dose: 300.0 mg/kg/injection, schedule: Q04DX003 (ip), vehicle: Klucel (hydroxypropylcellulose) (HPC)) was 100 % of control.
For CCCCNC(=O)C1C2C=CC(CC2)C1C(=O)NCCCC (configuration not stated), the T/C [1] was 104 % of control, the T/C [2] was 100 % of control and the T/C [3] was 96 % of control.
With COc1ccccc1/C=N\N/C(N)=N\N=C\c1ccccc1OC the T/C (dose: 15.0 mg/kg/injection, schedule: Q01DX Z (ip), vehicle: carboxymethylcellulose (CMC)) was 98 % of control, the T/C (dose: 30.0 mg/kg/injection, schedule: Q01DX Z (ip), vehicle: carboxymethylcellulose (CMC)) was 103 % of control and the T/C (dose: 60.0 mg/kg/injection, schedule: Q01DX Z (ip), vehicle: carboxymethylcellulose (CMC)) was 103 % of control and 117 % of control. The T/C (dose: 120.0 mg/kg/injection, schedule: Q01DX Z (ip), vehicle: carboxymethylcellulose (CMC)) was 101 % of control and 117 % of control, the T/C (dose: 240.0 mg/kg/injection, schedule: Q01DX Z (ip), vehicle: carboxymethylcellulose (CMC)) was 108 % of control and the T/C (dose: 240.0 mg/kg/injection, schedule: Q01DX Z (oral), vehicle: carboxymethylcellulose (CMC)) was 97 % of control. For the same compound, the T/C (dose: 480.0 mg/kg/injection, schedule: Q01DX Z (ip), vehicle: carboxymethylcellulose (CMC)) was 121 % of control, the T/C (dose: 480.0 mg/kg/injection, schedule: Q01DX Z (oral), vehicle: carboxymethylcellulose (CMC)) was 105 % of control and the T/C (dose: 960.0 mg/kg/injection, schedule: Q01DX Z (oral), vehicle: carboxymethylcellulose (CMC)) was 95 % of control. The T/C (dose: 1920.0 mg/kg/injection, schedule: Q01DX Z (oral), vehicle: carboxymethylcellulose (CMC)) was 105 % of control.
With CCN(CCO)CC(C)Nc1ccc([N+](=O)[O-])c2sc3ccccc3c(=O)c12 (configuration not stated) the T/C (dose: 1.5 mg/kg/injection, schedule: Q01DX Z (ip), vehicle: carboxymethylcellulose (CMC)) was 96 % of control, the T/C (dose: 3.0 mg/kg/injection, schedule: Q01DX Z (ip), vehicle: carboxymethylcellulose (CMC)) was 107 % of control and the T/C (dose: 3.5 mg/kg/injection, schedule: Q01DX Z (ip), vehicle: saline) was 101 % of control. The T/C (dose: 5.3 mg/kg/injection, schedule: Q01DX Z (ip), vehicle: saline) was 115 % of control, the T/C (dose: 6.0 mg/kg/injection, schedule: Q01DX Z (ip), vehicle: carboxymethylcellulose (CMC)) was 100 % of control and the T/C (dose: 8.0 mg/kg/injection, schedule: Q01DX Z (ip), vehicle: saline) was 104 % of control. For the same compound, the T/C (dose: 10.0 mg/kg/injection, schedule: Q01DX Z (ip), vehicle: other) was 107 % of control, the T/C (dose: 12.0 mg/kg/injection, schedule: Q01DX Z (ip), vehicle: carboxymethylcellulose (CMC)) was 110 % of control and the T/C (dose: 12.0 mg/kg/injection, schedule: Q01DX Z (ip), vehicle: saline) was 105 % of control and 89 % of control. For the same compound, the T/C (dose: 18.0 mg/kg/injection, schedule: Q01DX Z (ip), vehicle: saline) was 91 % of control, the T/C (dose: 30.0 mg/kg/injection, schedule: Q01DX Z (ip), vehicle: other) was 156 % of control and the T/C (dose: 40.0 mg/kg/injection, schedule: Q01DX Z (ip), vehicle: saline) was 166 % of control. The T/C (dose: 60.0 mg/kg/injection, schedule: Q01DX Z (ip), vehicle: saline) was 104 % of control, the T/C (dose: 90.0 mg/kg/injection, schedule: Q01DX Z (ip), vehicle: other) was 121 % of control and the T/C (dose: 90.0 mg/kg/injection, schedule: Q01DX Z (ip), vehicle: saline) was 89 % of control. For the same compound, the T/C (dose: 91.5 mg/kg/injection, schedule: Q01DX Z (ip), vehicle: saline) was 160 % of control, the T/C [4] was 114 % of control and the T/C (dose: 137.0 mg/kg/injection, schedule: Q01DX Z (ip), vehicle: saline) was 124 % of control. For the same compound, the T/C (dose: 400.0 mg/kg/injection, schedule: Q01DX001 (ip), vehicle: saline) was 167 % of control and 175 % of control.
With CNC(=S)N/N=C(\C=N\NC(=S)NC)c1ccc(-c2ccccc2)cc1 the T/C [5] was 89 % of control, the T/C [6] was 92 % of control and the T/C (dose: 400.0 mg/kg/injection, schedule: Q04DX002 (ip), vehicle: Klucel (hydroxypropylcellulose) (HPC)) was 92 % of control.
Cc1c2ccccc2c(C)c2c1ccc1ccccc12 was tested, and the T/C (dose: 6.25 mg/kg/injection, schedule: Q01DX001 (ip), vehicle: acetone) was 123 % of control and the T/C (dose: 12.37 mg/kg/injection, schedule: Q04DX003 (ip), vehicle: saline with Tween-80) was 112 % of control.
In the case of C=CCNC(=O)/C=C\C(=O)O, the T/C [5] was 99 % of control and the T/C [6] was 96 % of control.
With O=C1C2=C(C(=O)C3=C1C1CCC3C1)C1CCC2C1 the T/C (dose: 100.0 mg/kg/injection, schedule: Q04DX002 (ip), vehicle: saline with Tween-80) was 90 % of control and the T/C (dose: 400.0 mg/kg/injection, schedule: Q04DX002 (ip), vehicle: saline with Tween-80) was 93 % of control.
In the case of O=C1c2ccccc2C(=O)C1(c1ccccc1)c1ccccc1, the T/C (dose: 100.0 mg/kg/injection, schedule: Q01DX001 (ip), vehicle: carboxymethylcellulose (CMC)) was 103 % of control, the T/C (dose: 200.0 mg/kg/injection, schedule: Q01DX001 (ip), vehicle: carboxymethylcellulose (CMC)) was 97 % of control and the T/C (dose: 400.0 mg/kg/injection, schedule: Q01DX001 (ip), vehicle: carboxymethylcellulose (CMC)) was 92 % of control.
In the case of O=C(NCCCl)NC1(C(=O)O)CCCC1, the T/C [7] was 98 % of control, the T/C [8] was 107 % of control and the T/C [9] was 98 % of control.
C=C(Br)CNC(=O)NCC was tested, and the T/C [10] was 94 % of control, the T/C [11] was 91 % of control and the T/C [12] was 105 % of control. The T/C [1] was 97 % of control.
In the case of c1ccc(-c2nc3nnnn3nc2-c2ccccc2)cc1, the T/C (dose: 50.0 mg/kg/injection, schedule: Q01DX001 (ip), vehicle: saline) was 100 % of control, the T/C [4] was 103 % of control and the T/C (dose: 200.0 mg/kg/injection, schedule: Q01DX001 (ip), vehicle: saline) was 98 % of control.
In the case of Oc1c(Cl)c2nc3ccccc3nc2c2ccccc12, the T/C (dose: 100.0 mg/kg/injection, schedule: Q04DX003 (ip), vehicle: Klucel (hydroxypropylcellulose) (HPC)) was 95 % of control, the T/C (dose: 200.0 mg/kg/injection, schedule: Q04DX003 (ip), vehicle: Klucel (hydroxypropylcellulose) (HPC)) was 97 % of control and the T/C (dose: 400.0 mg/kg/injection, schedule: Q04DX003 (ip), vehicle: Klucel (hydroxypropylcellulose) (HPC)) was 98 % of control.
For CCOC(=O)c1c[nH]c2c(c1=O)c(=O)n(C)c(=O)n2C, the T/C [7] was 97 % of control, the T/C [8] was 101 % of control and the T/C [9] was 94 % of control.
In the case of CC(=O)Cc1ccc(Cl)cc1, the T/C (dose: 100.0 mg/kg/injection, schedule: Q04DX002 (ip), vehicle: saline) was 92 % of control, the T/C (dose: 200.0 mg/kg/injection, schedule: Q04DX002 (ip), vehicle: saline) was 95 % of control and the T/C (dose: 400.0 mg/kg/injection, schedule: Q04DX002 (ip), vehicle: saline) was 99 % of control.
In the case of CC1CCCN(P(c2ccccc2)N2CCCC(C)C2)C1 (configuration not stated), the T/C (dose: 100.0 mg/kg/injection, schedule: Q04DX002 (sc), vehicle: olive oil, sesame oil, peanut oil) was 97 % of control, the T/C (dose: 200.0 mg/kg/injection, schedule: Q04DX002 (sc), vehicle: olive oil, sesame oil, peanut oil) was 100 % of control and the T/C (dose: 400.0 mg/kg/injection, schedule: Q04DX002 (sc), vehicle: olive oil, sesame oil, peanut oil) was 100 % of control.
COc1ccc(OC)c(C(C)(O)CC(=O)O)c1 (configuration not stated) was tested, and the T/C [12] was 100 % of control, the T/C [1] was 96 % of control and the T/C (dose: 200.0 mg/kg/injection, schedule: Q01DX009 (ip), vehicle: saline with Tween-80) was 105 % of control. For the same compound, the T/C [2] was 93 % of control, the T/C [13] was 97 % of control and the T/C [3] was 101 % of control.
For CC(O)C(=O)[O][Hg][c]1ccccc1 (configuration not stated), the T/C (dose: 2.5 mg/kg/injection, schedule: Q01DX009 (ip), vehicle: saline with Tween-80) was 91 % of control, the T/C (dose: 2.5 mg/kg/injection, schedule: Q04DX003 (ip), vehicle: saline with Tween-80) was 92 % of control and the T/C (dose: 5.0 mg/kg/injection, schedule: Q01DX009 (ip), vehicle: saline with Tween-80) was 94 % of control. For the same compound, the T/C (dose: 5.0 mg/kg/injection, schedule: Q04DX003 (ip), vehicle: saline with Tween-80) was 105 % of control, the T/C (dose: 10.0 mg/kg/injection, schedule: Q01DX009 (ip), vehicle: saline with Tween-80) was 98 % of control and the T/C (dose: 10.0 mg/kg/injection, schedule: Q04DX003 (ip), vehicle: saline with Tween-80) was 108 % of control.
For Clc1ccc(/C=N\N=C\c2ccc(Cl)c(Cl)c2)cc1Cl, the T/C [10] was 90 % of control, the T/C [11] was 90 % of control and the T/C [12] was 95 % of control and 90 % of control. For the same compound, the T/C [2] was 90 % of control, the T/C [13] was 97 % of control and the T/C [3] was 91 % of control.
